{"source": "patent US6815425B1", "about": "(The United States of America as represented by the …, priority 1999, dated 2004)", "key": {"[1]": {"tested_on": "striatal lesions", "details": "striatal injections; cited from earlier work"}, "[2]": {"details": "cited from earlier work"}, "[3]": {"details": "animal studies / rodents; cited from earlier work"}, "[4]": {"tested_on": "forebrain neurons", "experiment": "Glutamate-induced neurotoxicity, colorimetric MTT assay, cultured forebrain neurons", "assay_type": "cell-based, rat", "method": "(§1) Primary cultures of neurons derived from the forebrains and spinal cords of E15 fetuses were prepared and maintained in culture for eight days. […] Extending these observations, we compared the neuroprotective efficacy of EEP and TRH."}, "[5]": {"details": "cited from earlier work; for plasma levels of thyroid hormone: in vivo"}, "[6]": {"tested_on": "serum enzyme thyroliberinase", "details": "cited from earlier work"}, "[7]": {"details": "cited from earlier work", "remark": "listed apart in the source"}, "[8]": {"tested_on": "glutamate-stimulated Ca2+ dynamics", "experiment": "Glutamate-stimulated Ca2+ dynamics after pre-incubation", "assay_type": "cell-based"}, "[9]": {"details": "compared with TRH; cited from earlier work"}, "[10]": {"tested_on": "immobility in the Porsolt swim test", "details": "administered to rats; cited from earlier work"}, "[11]": {"tested_on": "cultured forebrain neurons", "experiment": "Neuroprotection by EEP with or without SPBN in cultured forebrain neurons exposed to Glu, MTT assay", "assay_type": "cell-based, rat", "details": "SPBN 10 mM where present, Glu 100 μM, 1 h", "method": "Neuroprotection evident at higher concentrations of the tripeptide is further enhanced by the addition of the nitrone. Percent neuroprotection=100×((viabilitytest−vibilitymean Glu))/(viabilitymean control−viabilitymean Glu)). Neuroprotection was then assessed by conducting the colorimetric MTT assay."}, "[12]": {"target": "T1, TRH receptor (Homo sapiens, UniProt P34981)", "T1 sequence (P34981 1-398)": "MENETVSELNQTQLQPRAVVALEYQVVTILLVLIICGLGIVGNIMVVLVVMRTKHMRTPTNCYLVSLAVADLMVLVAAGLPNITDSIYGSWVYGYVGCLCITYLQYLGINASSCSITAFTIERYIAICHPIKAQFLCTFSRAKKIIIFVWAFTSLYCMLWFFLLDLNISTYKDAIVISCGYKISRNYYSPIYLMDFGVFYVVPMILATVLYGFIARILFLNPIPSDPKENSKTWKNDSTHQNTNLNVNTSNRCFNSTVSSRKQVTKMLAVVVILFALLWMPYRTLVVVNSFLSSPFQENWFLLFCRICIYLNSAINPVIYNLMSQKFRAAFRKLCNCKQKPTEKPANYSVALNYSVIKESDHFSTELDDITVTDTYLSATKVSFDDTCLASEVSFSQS", "details": "reported; cited from earlier work"}, "[13]": {"details": "rats, intraperitoneal 1.0 mg/kg; cited from earlier work"}, "[14]": {"tested_on": "locomotor activity", "details": "administered to rats; cited from earlier work"}, "[15]": {"tested_on": "spinal cord neurons", "experiment": "Glutamate-induced neurotoxicity, colorimetric MTT assay, cultured spinal cord neurons", "assay_type": "cell-based, rat", "details": "100 μM glutamate 30 min", "method": "as §1"}, "[16]": {"tested_on": "volume of necrosis", "details": "administered 15 min prior or 30 min post TBI; preliminary studies; cited from earlier work"}, "[17]": {"tested_on": "focal ischemia", "details": "rat; also when given 3 hours or 5 hours after start of recirculation (temporary model); cited from earlier work"}}, "note": "Entries after “also recorded” stand apart in the source; their conditions may differ."}
{"compound": "CC(C)(C)[N+]([O-])=Cc1ccccc1S(=O)(=O)O", "note": "[SPBN, N-tert-Butyl-α-(2-sulfophenyl)nitrone]", "values": [{"measurement": "volume of lesions induced by NMDA, kainic acid, AMPA, MPP+, 3-acetyl pyridine and malonate", "setting": "[1]", "result": "decreasing the volume of the lesions"}, {"measurement": "solubility in aqueous solutions", "setting": "[2]", "result": "soluble"}, {"measurement": "toxicity", "setting": "[3]", "result": "without significant toxicity; also recorded: Toxicity has not been a problem"}]}
{"compound": "NC(=O)[C@@H]1CCCN1C(=O)[C@H](Cc1cnc[nH]1)NC(=O)[C@@H]1CCC(=O)N1", "note": "[TRH, pyroglutamate-histidine-proline-amide, reference compound]", "values": [{"measurement": "effect on glutamate-mediated neurotoxicity", "setting": "[4]", "result": "relatively little effect"}, {"measurement": "plasma levels of thyroid hormone", "setting": "[5]", "result": "elevates"}, {"measurement": "hydrolysis by serum enzyme thyroliberinase", "setting": "[6]", "result": "hydrolyzed"}, {"measurement": "hydrolysis by pyroglutamylpeptidase II found in blood", "setting": "[7]; injected, blood", "result": "rapidly hydrolyzed"}, {"measurement": "effect on glutamate-stimulated Ca2+ dynamics", "setting": "[8]", "result": "clearly does"}]}
{"compound": "pGLU-GLU-PRO-NH2 [EEP]", "values": [{"measurement": "stability in follicular fluid", "setting": "[9]", "result": "more stable than TRH"}, {"measurement": "immobility in the Porsolt swim test", "setting": "[10]", "result": "decreases"}, {"measurement": "Percent Neuroprotection", "setting": "[11]; EEP 300 μM", "result": "13.321 ± 7.319", "unit": "%"}, {"measurement": "Percent Neuroprotection", "setting": "[11]; EEP 1000 μM", "result": "35.784 ± 15.431", "unit": "%"}, {"measurement": "affinity for the TRH receptor", "setting": "[12]", "result": "low affinity"}, {"measurement": "reduction of Glu-induced toxicity", "setting": "[4]; 500 μM EEP, 100 μM glutamate 30 min, n=7", "result": "29.8±5.6", "unit": "%"}, {"measurement": "neuroprotection (reduction of Glu-induced toxicity)", "setting": "[4]; 1 mM EEP, 100 μM glutamate 30 min, n=7", "result": "54.1±5.3", "unit": "%"}, {"measurement": "neuroprotective efficacy / potency relative to TRH", "setting": "[4]; EEP compared with TRH, neuron type not stated", "result": "over three times as effective as TRH; also recorded: three times the neuroprotective potency of TRH"}, {"measurement": "efficacy as a releaser of thyroid stimulating hormone or triiodothyronine", "setting": "[5]; compared to thyrotropin releasing hormone", "result": "minimal efficacy"}, {"measurement": "plasma levels of thyroid hormone", "setting": "[5]", "result": "does not elivate"}, {"measurement": "increase of EEP level in amygdala", "setting": "[13]", "result": 7, "unit": "fold"}, {"measurement": "increase of EEP level in cortex", "setting": "[13]", "result": 14, "unit": "fold"}, {"measurement": "increase of EEP level in the eye", "setting": "[13]", "result": "Over one hundred"}, {"measurement": "increase of EEP level in the hypothalamus", "setting": "[13]", "result": 2, "unit": "fold"}, {"measurement": "increase of EEP level in the medulla", "setting": "[13]", "result": 4, "unit": "fold"}, {"measurement": "increase of EEP level in the pituitary", "setting": "[13]", "result": 11, "unit": "fold"}, {"measurement": "locomotor activity", "setting": "[14]", "result": "increases"}, {"measurement": "reduction of Glu-induced toxicity", "setting": "[15]; 500 μM EEP, n=7", "result": "20±2.0", "unit": "%"}, {"measurement": "neuroprotection (reduction of Glu-induced toxicity)", "setting": "[15]; 1 mM EEP, n=8", "result": "38.9±4.9", "unit": "%"}, {"measurement": "hydrolysis by serum enzyme thyroliberinase", "setting": "[6]", "result": "not hydrolyzed"}, {"measurement": "degradation in human serum", "setting": "[7]; human serum", "result": "not degraded at all"}, {"measurement": "effect on glutamate-stimulated Ca2+ dynamics", "setting": "[8]", "result": "does not affect"}]}
{"compound": "CC(C)(C)[N+]([O-])=Cc1ccccc1", "note": "[PBN, α-Phenyl-N-tert-butylnitrone]", "values": [{"measurement": "toxicity", "setting": "[3]", "result": "significant toxicity at high doses; also recorded: toxic in rodents at high doses"}]}
{"compound": "CC(C)(C)[N+]([O-])=Cc1ccc(S(=O)(=O)[O-])cc1S(=O)(=O)[O-].[Na+].[Na+]", "note": "[NXY-059]", "values": [{"measurement": "volume of necrosis", "setting": "[16]", "result": "effective in decreasing volume of necrosis"}, {"measurement": "efficacy in temporary and permanent focal ischemia", "setting": "[17]", "result": "effective"}]}
